Experiment [1] deals with wheat leaf blight pathogen (Septoria tritici). In words: Fungicidal test for wheat leaf blight (microplate, turbidity at 405 nm). It is filed as cell-based. The following applies: for inhibition at 6.3 ppm / inhibition at 12.5 ppm / inhibition at 25 ppm / inhibition at 50 ppm / inhibition at 100 ppm: component (I) alone. As for the experimental part: Compounds of component (I) and component (II) were dissolved in dimethyl sulfoxide at 10,000 ppm and diluted with water to the prescribed concentration to prepare a chemical agent solution. A mixture of the prescribed concentration of the chemical agent solution, wheat leaf blight pathogen (Septoria tritici) conidia, and malt extract was prepared on a microplate and incubated at 20° C. in the dark for 3 days. The turbidity at a wavelength of 405 nm was measured with a microplate reader, and the growth of wheat leaf blight pathogen was compared with that of no treatment control to determine the growth inhibition rate. The results are shown in Tables 2 to 7, along with the expected values calculated as below.
Each expected value was calculated from the fungicidal efficacy of a single application of the compound of component (I) and the fungicidal efficacy of a single application of compound of component (II) by using Colby's equation (S. R. Colby, Calculating synergistic and antagonistic responses of herbicide combinations, Weeds, 15, 20-22 pp (1967)).
[formula] • where E represents the expected value of the growth inhibition rate (%) for the composition containing component (I) and component (II), M represents the growth inhibition rate (%) when the component (I) is used alone, and N represents the growth inhibition rate (%) when the component (II) is used alone. When the measured growth inhibition rate (%) for the composition containing component (I) and component (II) is greater than the expected value E, the composition containing components (I) and component (II) should exert a synergistic effect.

Experiment [2] has as its system soybean rust pathogen (Phakopsora pachyrhizi). Put plainly: Soybean rust control test (leaf discs). Format: in vivo. As for the experimental part: Compounds of component (I) and component (II) were dissolved in dimethyl sulfoxide and diluted with water to the prescribed concentration to prepare a chemical agent solution. A mixture of the prescribed concentration of the chemical agent solution and sterile water was prepared on a microplate, and leaf discs cut from soybean leaves were floated on the microplate. Uredospores of soybean rust pathogen (Phakopsora pachyrhizi) were inoculated and incubated at 25° C. for 9 days. The area percentage of lesions was determined by observing uredospore-forming lesions on the leaf discs, and the control value was calculated. The control value was calculated by the following formula:
Control value (%)=100−{Area percentage of lesions in treatment plot/Area percentage of lesions in untreatment plot}×100.
The results are shown in Tables 8 to 18, along with the expected values calculated as below. Each expected values was calculated from the fungicidal efficacy of a single application of compound of component (I) and the fungicidal efficacy of a single application of compound of component (II) by using Colby's equation:
[formula] • where E represents the expected value of the control value for the composition containing component (I) and component (II), M represents the control value (%) when the component (I) is used alone, and N represents the control value (%) when the component (II) is used alone. When the measured control value for the composition containing component (I) and component (II) is greater than the expected value E, the composition containing component (I) and composition (II) should exert a synergistic effect.

The test system of experiment [3] is cucumber anthracnose pathogen (Colletotrichum lagenarium). In words: Fungicidal test for cucumber anthracnose (microplate, turbidity at 405 nm). Format: cell-based. To be noted: Colletotrichum orbiculare, Compound 8 alone, read-out: growth inhibition rate. The method, then: The compounds were dissolved in dimethyl sulfoxide to prepare a chemical agent solution.
A mixture of the prescribed concentration of the chemical agent solution, cucumber anthracnose pathogen (Colletotrichum lagenarium) conidia, and Vogel medium was prepared on a microplate and incubated at 20° C. in the dark for 7 days.
Each expected value was calculated using Colby's equation:
[formula] • where E represents the expected value of the growth inhibition rate (%), M represents the growth inhibition rate (%) when the component (I) is used alone, and N represents the growth inhibition rate (%) when the component (II) is used alone.

Setting [4] is: Table 15, component (II) alone (component (I): None): Azoxystrobin 0.0001, Inpyrfluxam 0.000025, Chlorothalonil 0.0063, Difenoconazole 0.000025, Cyproconazole 0.000025, Tebuconazole 0.000025, Trifloxystrobin 0.0001, Pyraclostrobin 0.0001, Fluazinam 0.0063, Fluxapyroxad 0.000025, Prothioconazole 0.000025, Florylpicoxamid 0.0001, Benzovindiflupyr 0.000025, Mancozeb 0.0063 ppm.
[5] abbreviates: Table 18, component (II) alone (component (I): None): Azoxystrobin 0.0001, Inpyrfluxam 0.000025, Chlorothalonil 0.0063, Difenoconazole 0.000025, Cyproconazole 0.000025, Tebuconazole 0.000025, Trifloxystrobin 0.0001, Pyraclostrobin 0.0001, Fluazinam 0.0063, Fluxapyroxad 0.000025, Prothioconazole 0.000025, Florylpicoxamid 0.0001, Benzovindiflupyr 0.000025, Mancozeb 0.0063 ppm.
Setting [6] is: Zymoseptoria tritici, component (II) alone, read-out: growth inhibition rate.
The mark [7] stands for this setting: Zymoseptoria tritici, read-out: growth inhibition rate.
[8] abbreviates: component (I) alone, 0.0063 ppm.
Setting [9] is: Zymoseptoria tritici, component (II) alone, 16 ppm, read-out: growth inhibition rate.
Setting [10] is: Table 14, component (II) alone (component (I): None): Inpyrfluxam 0.00025, Chlorothalonil 0.006, Thiophanate-methyl 0.0001, Tebuconazole 0.000025, Trifloxystrobin 0.0001, Fluazinam 0.006, Prothioconazole 0.000025, Florylpicoxamid 0.0001, Metominostrobin 0.0004 ppm.
[11] abbreviates: Table 16, component (II) alone (component (I): None): Inpyrfluxam 0.000025, Chlorothalonil 0.006, Thiophanate-methyl 0.0001, Tebuconazole 0.000025, Trifloxystrobin 0.0001, Fluazinam 0.006, Prothioconazole 0.000025, Florylpicoxamid 0.0001, Metominostrobin 0.0004 ppm.
[12] abbreviates: Table 17, component (II) alone (component (I): None): Inpyrfluxam 0.000026, Chlorothalonil 0.02, Thiophanate-methyl 0.0004, Tebuconazole 0.0001, Trifloxystrobin 0.0001, Fluazinam 0.006, Prothioconazole 0.000025, Florylpicoxamid 0.0001, Metominostrobin 0.0004 ppm.
Setting [13] is: Zymoseptoria tritici, component (II) alone, 0.25 ppm, read-out: growth inhibition rate.

With `O=S(=O)([O-])[O-].[Cu+2]` [Copper sulfate, copper sulfate], the growth inhibition rate in experiment [1] (component (II) alone, 0.25 ppm) is 8%; in experiment [1] (component (II) alone, 1 ppm), 24%; in experiment [1] (component (II) alone, 16 ppm), 73%.
Consider `Cn1cc(C(=O)Nc2ccccc2-c2cc(F)c(F)c(F)c2)c(C(F)F)n1` [Fluxapyroxad, fluxapyroxad], for which the growth inhibition rate is 32% in experiment [1] (component (II) alone, 0.001 ppm); 63% in experiment [1] (component (II) alone, 0.02 ppm); 86% in experiment [1] (component (II) alone, 1 ppm). The control value in experiment [2] (setting [4]) is listed as 0%; in experiment [2] (setting [5]) it was 75%.
As a reminder, the inhibition is the relative decrease from the control value, in per cent. As to `Fc1ccc([C@]2(Cn3cncn3)O[C@H]2c2ccccc2Cl)cc1` (racemic) [Epoxiconazole, epoxiconazole], the inhibition at 0.02 ppm in experiment [1] (Zymoseptoria tritici, component (II) alone, 0.02 ppm, read-out: growth inhibition rate) is 27%. For the same molecule, the inhibition at 64 ppm in experiment [1] (setting [6]) stood at 94%.
Turning to `CCON=C1CN(C(=O)Cc2ccc(-c3noc(C(F)(F)F)n3)cc2)C1` [Compound 1], in experiment [1] (setting [7]), the inhibition at 6.3 ppm was found to be 44%, the inhibition at 12.5 ppm was 58%, the inhibition at 25 ppm came to 70% and the inhibition at 50 ppm was determined as 82%. In addition, the inhibition at 100 ppm in experiment [1] (setting [7]) turned out to be 90%. Further, the control value in experiment [2] (setting [8]) was determined as 12%. In addition, in experiment [2] (component (I) alone, 0.025 ppm), the control value worked out at 48%. In addition, the control value in experiment [2] (component (I) alone, 0.1 ppm) is 75%. Further, the control value in experiment [2] (component (I) alone, 0.4 ppm) turned out to be 99%.
As for `CC1COC(Cn2cncn2)(c2ccc(Oc3ccc(Cl)cc3)cc2Cl)O1` (centres unmarked) [Difenoconazole, difenoconazole], the inhibition at 0.004 ppm in experiment [1] (Zymoseptoria tritici, component (II) alone, 0.004 ppm, read-out: growth inhibition rate) amounted to 75%. Moreover, the inhibition at 0.04 ppm in experiment [1] (Zymoseptoria tritici, component (II) alone, 0.04 ppm, read-out: growth inhibition rate) worked out at 75%. For the same molecule, in experiment [1] (setting [6]), the inhibition at 4 ppm was 85%. The inhibition at 16 ppm in experiment [1] (setting [9]) came out at 83%. Also, in experiment [1] (Zymoseptoria tritici, component (II) alone, .0002 ppm (also printed 0002), read-out: growth inhibition rate), the inhibition at 0.0002 ppm is 69%. Moreover, the control value is on record as 75% in experiment [2] (setting [4]) and 0% in experiment [2] (setting [5]).
For inpyrfluxam [reference compound], the growth inhibition rate was determined as 24% in experiment [1] (component (II) alone, 0.01 ppm) and 49% in experiment [1] (component (II) alone, 0.04 ppm). Besides, the control value in experiment [2] (setting [10]) stood at 16%; in experiment [2] (setting [4]) it was 50%; in experiment [2] (setting [11]) it was 16%; in experiment [2] (setting [12]), 16%; in experiment [2] (setting [5]) it was 50%.
On to `CON=C(C(=O)OC)c1ccccc1CON=C(C)c1cccc(C(F)(F)F)c1` [Trifloxystrobin, trifloxystrobin, reference compound], for which the inhibition at 0.25 ppm in experiment [1] (setting [13]) worked out at 21%. Further, the control value turned out to be 16% in experiment [2] (setting [10]); 0% in experiment [2] (setting [4]); 16% in experiment [2] (setting [11]); 16% in experiment [2] (setting [12]); 75% in experiment [2] (setting [5]); 50% in experiment [2] (component (II) alone, 0.0004 ppm).
In the case of `O=C(Cc1ccc(-c2noc(C(F)(F)F)n2)cc1)N1CCC(=NOC2CCCCO2)CC1` (centres unmarked) [Compound 2], in experiment [1] (setting [7]), the inhibition at 6.3 ppm was 34%, the inhibition at 12.5 ppm came out at 46%, the inhibition at 25 ppm stood at 52% and the inhibition at 50 ppm came out at 59%. The inhibition at 100 ppm in experiment [1] (setting [7]) was found to be 62%.
For `Cn1cc(C(=O)Nc2ccc(F)cc2-c2ccc(Cl)c(Cl)c2)c(C(F)F)n1` [Bixafen, bixafen], in experiment [1] (component (II) alone, 0.004 ppm), the growth inhibition rate was 27%.
As for `CCCOC/C(=N\c1ccc(Cl)cc1C(F)(F)F)n1ccnc1` [Triflumizole, triflumizole], the inhibition at 0.06 ppm in experiment [1] (Zymoseptoria tritici, component (II) alone, 0.06 ppm, read-out: growth inhibition rate) is 12%. Further, the inhibition at 0.25 ppm in experiment [1] (setting [13]) came to 11%.
With `CO/C=C(/C(=O)OC)c1ccccc1COc1cccc(C(F)(F)F)n1` [Picoxystrobin, picoxystrobin], the growth inhibition rate in experiment [1] (component (II) alone, 0.02 ppm) came to 2%; in experiment [1] (component (II) alone, 0.06 ppm) it was 3%; in experiment [1] (component (II) alone, 0.25 ppm), 8%; in experiment [1] (component (II) alone, 1 ppm) it was 8%.
With `O=C(Cc1ccc(-c2noc(C(F)(F)F)n2)cc1)N1CC(=NOCC(F)F)C1` [Compound 4], in experiment [1] (setting [7]), the inhibition at 6.3 ppm is 36%, the inhibition at 12.5 ppm is 49%, the inhibition at 25 ppm was found to be 75% and the inhibition at 50 ppm stood at 99%. Moreover, the inhibition at 100 ppm in experiment [1] (setting [7]) came out at 100%. In addition, the control value in experiment [2] (setting [8]) is given as 18%. Moreover, the control value in experiment [2] (component (I) alone, 0.025 ppm) came to 28%. For the same molecule, in experiment [2] (component (I) alone, 0.1 ppm), the control value is reported as 67%. Besides, the control value in experiment [2] (component (I) alone, 0.4 ppm) came to 97%.
On to `CO/C=C(/C(=O)OC)c1ccccc1Oc1cc(Oc2ccccc2C#N)ncn1` [Azoxystrobin, azoxystrobin, reference compound], for which the growth inhibition rate worked out at 10% in experiment [1] (component (II) alone, 0.06 ppm) and 10% in experiment [1] (component (II) alone, 1 ppm). In addition, the control value in experiment [2] (setting [4]) was 33%; in experiment [2] (setting [5]), 0%.
As for `CCON=C1CCN(C(=O)Cc2ccc(-c3noc(C(F)(F)F)n3)cc2)CC1` [Compound 8], the control value in experiment [2] (Compound 8 alone, 0.0063 ppm) is listed as 10%; in experiment [2] (Compound 8 alone, 0.025 ppm), 16%; in experiment [2] (Compound 8 alone, 0.1 ppm), 32%; in experiment [2] (Compound 8 alone, 0.4 ppm) it was 75%; in experiment [2] (Compound 8 alone, 1.6 ppm) it was 93%. In addition, the inhibition at 0.025 ppm in experiment [3] (0.025 ppm) worked out at 58%. For the same molecule, the inhibition at 0.1 ppm in experiment [3] (0.1 ppm) was 55%. Also, in experiment [3] (0.4 ppm), the inhibition at 0.4 ppm turned out to be 85%.
`Cc1ccc(-c2c(Cl)nc(C#N)n2S(=O)(=O)N(C)C)cc1` [Cyazofamid, cyazofamid]: the inhibition at 0.25 ppm in experiment [1] (setting [13]) came out at 0%. Besides, in experiment [1] (setting [6]), the inhibition at 4 ppm worked out at 6% and the inhibition at 64 ppm was 27%. Besides, the inhibition at 16 ppm in experiment [1] (setting [9]) came out at 4%.

Source of the values: patent US20240268388A1, “AGRICULTURAL AND HORTICULTURAL FUNGICIDAL COMPOSITION” (NIPPON SODA CO., LTD., priority 2021, published 2024).
